One assay has as its target PIM2 (Homo sapiens, UniProt Q9P1W9). The assay is described as follows: KinaseGlo Pim2 ATP depletion assay. It counts as biochemical. A digest of the protocol: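 Compound sat 15 min with enzyme and BAD peptide before ATP was added; final levels 5 nM PIM2, 10 μM peptide, 4 μM ATP, 2.5% DMSO, pH 7.5 HEPES buffer with MgCl2, DTT, BSA. Stopped near 50% ATP consumption; remaining ATP measured by luciferase luminescence.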

In a further assay the target is PIM3 (Homo sapiens, UniProt Q86V86). Nature of the assay: KinaseGlo Pim3 ATP depletion assay. It counts as biochemical. In outline:
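Residual ATP was detected by luciferase luminescence once about half had been consumed. The reaction contained 5 nM enzyme, 100 μM BAD peptide (RSRHSSYPAGT) and 40 μM ATP in 50 mM HEPES pH 7.5, 5 mM MgCl2, 1 mM DTT and 0.05% BSA with 2.5% DMSO. Compound and enzyme/peptide were premixed 15 min before ATP.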

The target of another assay is GSK3β (Homo sapiens, UniProt P49841). The assay is described as follows: GSK3β ATP depletion assay. It counts as biochemical. Conditions: read-out: GSK3b IC50. A digest of the protocol:
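Kinase activity is read as ATP consumption: luciferase luminescence reports the ATP remaining once roughly half of the 2 μM ATP is used. Reaction mix: 5 nM GSK3β, 10 μM b-CREB peptide, 50 mM Tris pH 7.5, 15 mM MgCl2, 1 mM DTT, 0.1% BSA, 2.5% DMSO. Enzyme and peptide are preincubated 15 min before ATP is added.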

The subject of assay [1] is KMS11 (human myeloma cell line). Nature of the assay: Cell proliferation assay (CellTiter-Glo), KMS11. It counts as cell-based. Conditions: Homo sapiens, KMS-11; KMS11-Luc cells. A digest of the protocol: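 EC50 derived from CellTiter-Glo luminescence after 3-day exposure at 37° C. Compound was diluted to 2× in medium and added to an equal volume of cells. KMS11 myeloma cells were plated on assay day at 2000/well in IMDM with 10% FBS and sodium pyruvate.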
Background: ATP-based viability assays read luminescence as a measure of living cells.

Another assay has as its target PIM1 (Homo sapiens, UniProt P11309). Nature of the assay: KinaseGlo Pim1 ATP depletion assay. It counts as biochemical. In outline: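 IC50 is derived from residual ATP measured by KinaseGlo Plus luminescence once about half the ATP was consumed. Final conditions were 20 μM ATP, 40 μM BAD peptide and 2.5 nM kinase in HEPES pH 7.5 buffer with MgCl2, DTT and BSA, plus 2.5% DMSO. Compound and enzyme were premixed 15 min before ATP addition.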
(In general: Kinase-Glo measures the ATP left after a reaction by luminescence.)

This passage reports IC50 and EC50 results from patent US20130109682A1, “CYCLIC ETHER COMPOUNDS USEFUL AS KINASE INHIBITORS” (NOVARTIS AG, priority 2010, published 2013).

By IC50 is commonly meant the concentration at which inhibition is half-maximal. The term EC50 denotes the concentration needed to bring the measured effect to its halfway point.

Chain of PIM1 (P11309 whole entry): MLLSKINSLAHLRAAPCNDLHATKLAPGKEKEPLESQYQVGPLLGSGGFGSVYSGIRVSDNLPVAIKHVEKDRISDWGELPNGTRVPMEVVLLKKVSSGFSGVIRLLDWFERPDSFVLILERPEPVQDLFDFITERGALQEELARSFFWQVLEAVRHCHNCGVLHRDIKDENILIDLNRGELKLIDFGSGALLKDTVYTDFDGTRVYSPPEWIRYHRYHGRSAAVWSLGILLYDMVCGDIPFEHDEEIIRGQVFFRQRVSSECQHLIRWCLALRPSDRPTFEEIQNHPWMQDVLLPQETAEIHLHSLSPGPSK
Chain of GSK3β (P49841 whole entry, species assumed): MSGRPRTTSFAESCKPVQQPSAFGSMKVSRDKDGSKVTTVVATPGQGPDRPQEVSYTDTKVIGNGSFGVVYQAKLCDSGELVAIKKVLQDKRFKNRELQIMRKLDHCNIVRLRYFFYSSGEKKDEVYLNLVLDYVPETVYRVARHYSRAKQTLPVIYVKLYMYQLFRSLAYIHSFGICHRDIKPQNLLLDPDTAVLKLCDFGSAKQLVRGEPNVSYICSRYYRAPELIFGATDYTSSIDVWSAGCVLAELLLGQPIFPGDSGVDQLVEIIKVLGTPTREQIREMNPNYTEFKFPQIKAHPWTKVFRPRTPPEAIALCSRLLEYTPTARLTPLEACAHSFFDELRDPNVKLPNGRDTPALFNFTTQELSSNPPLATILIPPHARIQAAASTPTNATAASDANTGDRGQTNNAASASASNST
Chain of PIM2 (Q9P1W9 whole entry): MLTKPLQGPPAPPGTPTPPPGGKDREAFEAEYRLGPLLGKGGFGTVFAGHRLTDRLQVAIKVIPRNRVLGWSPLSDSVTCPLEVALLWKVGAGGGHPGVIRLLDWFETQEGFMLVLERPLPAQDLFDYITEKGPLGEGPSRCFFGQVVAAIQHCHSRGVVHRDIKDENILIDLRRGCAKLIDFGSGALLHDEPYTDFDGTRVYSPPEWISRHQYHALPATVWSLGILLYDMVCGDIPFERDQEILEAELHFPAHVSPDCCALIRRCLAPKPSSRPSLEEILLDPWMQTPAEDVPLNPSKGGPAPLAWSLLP

`CC[C@]1(O)[C@H](O)C[C@H](c2ccncc2NC(=O)c2nc(-c3cnn(C)c3C)ccc2N)O[C@@H]1C` [Example 156, 3-amino-6-(1,5-dimethyl-1H-pyrazol-4-yl)-N-(4-((2R,4R,5S,6R)-5-ethyl-4,5-dihydroxy-6-methyltetrahydro-2H-pyran-2-yl)pyridin-3-yl)picolinamide]: the half-inhibitory concentration (IC50) worked out at 532 nM against PIM2, 42.4 nM against PIM3, 21.9 nM at GSK3β and 25.4 nM against PIM1. Also, the concentration for a half-maximal effect (EC50) in assay [1] is more than 10000 nM.

As for `CC[C@]1(O)[C@H](O)C[C@H](c2ccncc2NC(=O)c2nc(-c3ccncc3F)ccc2N)O[C@@H]1C` [Example 157, 5-amino-N-(4-((2R,4R,5S,6R)-5-ethyl-4,5-dihydroxy-6-methyltetrahydro-2H-pyran-2-yl)pyridin-3-yl)-3′-fluoro-2,4′-bipyridine-6-carboxamide], the half-maximal inhibitory concentration (IC50) was found to be 34.6 nM at PIM2, 8.1 nM on PIM3, 7.9 nM on GSK3β and 8 nM against PIM1. This molecule also had an EC50 in assay [1] of 9630 nM.

Turning to `CC[C@]1(O)[C@H](O)C[C@H](c2ccncc2NC(=O)c2ncccc2N)O[C@@H]1C` [Example 158, 3-amino-N-(4-((2R,4R,5S,6R)-5-ethyl-4,5-dihydroxy-6-methyltetrahydro-2H-pyran-2-yl)pyridin-3-yl)picolinamide], the half-inhibitory concentration (IC50) against PIM2 came out at 68.1 nM; at PIM3, 6.9 nM; at GSK3β it was 23.1 nM; on PIM1 it was 8.8 nM. Further, in assay [1], the EC50 was more than 10000 nM.

In the case of `CC[C@]1(O)[C@H](O)C[C@H](c2ccncc2NC(=O)c2nc(-c3ccnnc3)ccc2N)O[C@@H]1C` [Example 160, 3-amino-N-(4-((2R,4R,5S,6R)-5-ethyl-4,5-dihydroxy-6-methyltetrahydro-2H-pyran-2-yl)pyridin-3-yl)-6-(pyridazin-4-yl)picolinamide], the IC50 was 1640 nM against PIM2, 260 nM on PIM3, 67.4 nM at GSK3β and 166 nM on PIM1. The same molecule had an EC50 in assay [1] of more than 10000 nM.

`C=C[C@H]1O[C@@H](c2ccncc2NC(=O)c2nc(-c3c(F)cccc3F)ncc2N)C[C@@H](O)[C@@H]1O` [Example 161, 5-amino-2-(2,6-difluorophenyl)-N-(4-((2R,4R,5S,6R)-4,5-dihydroxy-6-vinyltetrahydro-2H-pyran-2-yl)pyridin-3-yl)pyrimidine-4-carboxamide]: the concentration for half-maximal inhibition (IC50) is 22.3 nM against PIM2, 15.8 nM against PIM3, 1430 nM at GSK3β and 32.8 nM against PIM1. Moreover, in assay [1], the 50% effective concentration (EC50) was more than 10000 nM.

For `CC[C@H]1O[C@@H](c2ncncc2NC(=O)c2ccc(F)c(-c3c(F)cccc3F)n2)C[C@@H](O)[C@@H]1O` [Example 162, 6-(2,6-difluorophenyl)-N-(4-((2R,4R,5S,6R)-6-ethyl-4,5-dihydroxytetrahydro-2H-pyran-2-yl)pyrimidin-5-yl)-5-fluoropicolinamide], the 50% inhibitory concentration (IC50) on PIM2 came to 818 nM; against PIM3, 178 nM; at GSK3β, 13500 nM; against PIM1 it was 216 nM. The EC50 in assay [1] is more than 10000 nM.

Turning to `CC[C@H]1O[C@@H](c2ccncc2NC(=O)c2ccc(F)c(-c3c(F)cccc3F)n2)C[C@@H](O)[C@]1(C)O` [Example 164, 6-(2,6-difluorophenyl)-N-(4-((2R,4R,5S,6R)-6-ethyl-4,5-dihydroxy-5-methyltetrahydro-2H-pyran-2-yl)pyridin-3-yl)-5-fluoropicolinamide], the IC50 was found to be 1.9 nM at PIM2, 1.6 nM against PIM3, 2070 nM on GSK3β and 0.8 nM on PIM1. In assay [1], a half-maximal effect (EC50) was put at 2760 nM.

As for `CC[C@@H]1O[C@H](c2ccncc2NC(=O)c2nc(-c3c(F)cccc3F)c(F)cc2N)C[C@H](O)[C@@]1(C)O` [Example 165, 3-amino-6-(2,6-difluorophenyl)-N-(4-((2S,4S,5R,6S)-6-ethyl-4,5-dihydroxy-5-methyltetrahydro-2H-pyran-2-yl)pyridin-3-yl)-5-fluoropicolinamide], the IC50 against PIM2 came out at 67.7 nM; against PIM3, 35.9 nM; on GSK3β it was 2680 nM; on PIM1 it was 9 nM. For the same molecule, the EC50 in assay [1] is more than 10000 nM.

On to `CC[C@H]1O[C@@H](c2ccncc2NC(=O)c2nc(-c3c(F)cccc3F)c(F)cc2N)C[C@@H](O)[C@]1(C)O` [Example 166, 3-amino-6-(2,6-difluorophenyl)-N-(4-((2R,4R,5S,6R)-6-ethyl-4,5-dihydroxy-5-methyltetrahydro-2H-pyran-2-yl)pyridin-3-yl)-5-fluoropicolinamide], for which the IC50 on PIM2 was determined as 1.2 nM; against PIM3, 1.5 nM; at GSK3β, 1680 nM; against PIM1 it was 0.6 nM. This molecule also showed an EC50 in assay [1] of 1330 nM.

Take `CC[C@@H]1O[C@H](c2ccncc2NC(=O)c2nc(-c3c(F)cccc3F)ncc2N)C[C@H](O)[C@@]1(C)O` [Example 167, 5-amino-2-(2,6-difluorophenyl)-N-(4-((2S,4S,5R,6S)-6-ethyl-4,5-dihydroxy-5-methyltetrahydro-2H-pyran-2-yl)pyridin-3-yl)pyrimidine-4-carboxamide]: the IC50 against PIM2 is 92 nM; at PIM3, 86.7 nM; at GSK3β, 3410 nM; against PIM1, 65.5 nM. The half-maximal effective concentration (EC50) in assay [1] was more than 10000 nM.

Turning to `CC[C@H]1O[C@@H](c2ccncc2NC(=O)c2nc(-c3c(F)cccc3F)ncc2N)C[C@@H](O)[C@]1(C)O` [Example 168, 5-amino-2-(2,6-difluorophenyl)-N-(4-((2R,4R,5S,6R)-6-ethyl-4,5-dihydroxy-5-methyltetrahydro-2H-pyran-2-yl)pyridin-3-yl)pyrimidine-4-carboxamide], the IC50 against PIM2 was determined as 2.3 nM; against PIM3 it was 2.7 nM; at GSK3β, 1030 nM; on PIM1 it was 3 nM. Also, in assay [1], it took 5900 nM to reach a half-maximal effect (EC50).

Consider `CCC[C@H]1O[C@@H](c2ccncc2NC(=O)c2nc(-c3c(F)cccc3F)ncc2N)C[C@@H](O)[C@@H]1O` [Example 169, 5-amino-2-(2,6-difluorophenyl)-N-(4-((2R,4R,5S,6R)-4,5-dihydroxy-6-propyltetrahydro-2H-pyran-2-yl)pyridin-3-yl)pyrimidine-4-carboxamide], for which the IC50 at PIM2 was determined as 9.3 nM; against PIM3 it was 13.2 nM; at GSK3β, 1660 nM; against PIM1 it was 14.4 nM. For the same molecule, the concentration for a half-maximal effect (EC50) in assay [1] is more than 10000 nM.

Consider `O=C(Nc1cnccc1[C@H]1C[C@@H](O)[C@@]2(O)CCCC[C@H]2O1)c1ccc(F)c(-c2c(F)cccc2F)n1` [Example 174, 6-(2,6-difluorophenyl)-N-(4-((2R,4R,4aS,8aR)-4,4a-dihydroxyoctahydro-2H-chromen-2-yl)pyridin-3-yl)-5-fluoropicolinamide], for which the IC50 turned out to be 1.3 nM on PIM2, 1.6 nM against PIM3, 19.8 nM on GSK3β and 0.5 nM on PIM1. Moreover, the response in assay [1] was half-maximal at 2630 nM (EC50).

As to `Nc1cnc(-c2c(F)cccc2F)nc1C(=O)Nc1cnccc1[C@@H]1C[C@H](O)[C@]2(O)CCCC[C@@H]2O1` [Example 175, 5-amino-2-(2,6-difluorophenyl)-N-(4-((2S,4S,4aR,8aS)-4,4a-dihydroxyoctahydro-2H-chromen-2-yl)pyridin-3-yl)pyrimidine-4-carboxamide], the concentration for half-maximal inhibition (IC50) against PIM2 was 58.7 nM; against PIM3, 57.4 nM; at GSK3β, 598 nM; against PIM1 it was 35.7 nM. Further, the 50% effective concentration (EC50) in assay [1] was more than 10000 nM.
